Measured values: the supplement of paper PMC6045584
± gives the standard deviation of the averaged measurements.

What was measured:
[1] = compound: CC(=O)c1c(C)c2cnc(Nc3ccc(N4CCNCC4)cn3)nc2n(C2CCCC2)c1=O; assay: surviving fraction relative to DMSO-only wells; higher = less growth inhibition; details: exposure time: 5 days
How it was run: (§1)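 Lines were retained only if, across three screens, replicate Pearson r was >0.7 and median Z' was >0.3. Viability was measured as CellTiter-Glo luminescence and reported as surviving fraction relative to the median of DMSO-only wells. Readings followed 10 minutes at room temperature, after log-phase tumour cells seeded at 250–500 per well in 384-well plates had been exposed, from 24 hours after seeding, continuously for five days to inhibitors at 0.5, 1, 5, 10, 50, 100, 500 and 1000 nM.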

CARBOPLATIN = compound: O=C(O)C1(C(=O)O)CCC1.[NH2-].[NH2-].[Pt+2] [CARBOPLATIN]; assay: as above; details: exposure time: 5 days
How it was run: as §1

Test System | surviving fraction ([1]; 0.5 nM) | surviving fraction ([1]; 1 nM) | surviving fraction ([1]; 5 nM) | surviving fraction ([1]; 10 nM) | surviving fraction ([1]; 50 nM) | surviving fraction ([1]; 100 nM) | surviving fraction ([1]; 500 nM) | surviving fraction ([1]; 1000 nM) | surviving fraction (CARBOPLATIN; 0.5 nM) | surviving fraction (CARBOPLATIN; 1 nM) | surviving fraction (CARBOPLATIN; 5 nM) | surviving fraction (CARBOPLATIN; 10 nM) | surviving fraction (CARBOPLATIN; 50 nM) | surviving fraction (CARBOPLATIN; 100 nM) | surviving fraction (CARBOPLATIN; 500 nM) | surviving fraction (CARBOPLATIN; 1000 nM)
SYO1 SYNOVIAL | 0.989 ± 0.024 | 0.966 ± 0.021 | 0.984 ± 0.024 | 1.02 ± 0.054 | 0.995 ± 0.018 | 0.98 ± 0.066 | 0.792 ± 0.061 | 0.706 ± 0.055 | 1.04 ± 0.028 | 0.986 ± 0.023 | 1.06 ± 0.027 | 0.9793 ± 0.0044 | 0.998 ± 0.019 | 1.01 ± 0.035 | 0.99 ± 0.065 | 0.972 ± 0.028
U2OS BONE | 1.02 ± 0.044 | 1.01 ± 0.04 | 1.06 ± 0.021 | 1.06 ± 0.033 | 1.06 ± 0.034 | 1.06 ± 0.033 | 0.979 ± 0.032 | 0.981 ± 0.062 | 1.04 ± 0.044 | 1.05 ± 0.046 | 1.07 ± 0.033 | 1.1 ± 0.028 | 1.1 ± 0.049 | 1.077 ± 0.0098 | 1.06 ± 0.016 | 1.05 ± 0.032
ASKA SYNOVIAL | 1.04 ± 0.06 | 0.971 ± 0.057 | 1.06 ± 0.094 | 1.02 ± 0.071 | 1.07 ± 0.1 | 1.08 ± 0.074 | 0.82 ± 0.034 | 0.73 ± 0.023 | 1.03 ± 0.06 | 1.05 ± 0.022 | 1.16 ± 0.088 | 1.17 ± 0.061 | 1.14 ± 0.073 | 1.27 ± 0.1 | 1.1 ± 0.097 | 1.09 ± 0.086
BT549 BREAST | 1.1 ± 0.12 | 1.124 ± 0.0096 | 1.22 ± 0.14 | 1.03 ± 0.098 | 1.13 ± 0.17 | 0.979 ± 0.16 | 1.12 ± 0.12 | 1.05 ± 0.036 | 1.08 ± 0.038 | 1.19 ± 0.04 | 1.06 ± 0.081 | 1.05 ± 0.03 | 1.05 ± 0.097 | 1.2 ± 0.072 | 0.967 ± 0.034 | 1.16 ± 0.032
HOS BONE | 1.02 ± 0.068 | 1.03 ± 0.021 | 1.01 ± 0.022 | 1.04 ± 0.034 | 1.114 ± 0.0042 | 1.07 ± 0.06 | 1.05 ± 0.016 | 1.08 ± 0.057 | 1.06 ± 0.013 | 1.05 ± 0.02 | 1.04 ± 0.03 | 1.04 ± 0.02 | 1.15 ± 0.05 | 1.11 ± 0.033 | 1.07 ± 0.02 | 1.068 ± 0.0086
HOSMNG BONE | 1.03 ± 0.021 | 0.978 ± 0.16 | 1.02 ± 0.042 | 1 ± 0.048 | 1.07 ± 0.072 | 1.05 ± 0.18 | 1.07 ± 0.094 | 1.06 ± 0.16 | 1.06 ± 0.025 | 1.02 ± 0.059 | 1.03 ± 0.075 | 1.05 ± 0.036 | 1.22 ± 0.069 | 1.23 ± 0.015 | 1.091 ± 0.0096 | 1.19 ± 0.013
SNU475 LIVER | 1.02 ± 0.037 | 1.01 ± 0.041 | 1.06 ± 0.026 | 1.01 ± 0.073 | 1.07 ± 0.02 | 1.03 ± 0.088 | 1.04 ± 0.021 | 0.917 ± 0.04 | 1.04 ± 0.088 | 1.06 ± 0.038 | 1.07 ± 0.041 | 1.05 ± 0.037 | 1.02 ± 0.075 | 1.05 ± 0.043 | 1.01 ± 0.04 | 1.04 ± 0.036
HCC202 BREAST | 0.959 ± 0.31 | 0.859 ± 0.088 | 1.01 ± 0.094 | 0.874 ± 0.16 | 0.863 ± 0.17 | 1 ± 0.25 | 1.19 ± 0.15 | 0.982 ± 0.22 | 1.19 ± 0.33 | 1.05 ± 0.058 | 1.31 ± 0.09 | 1.07 ± 0.36 | 1.02 ± 0.23 | 1.14 ± 0.018 | 1.27 ± 0.4 | 1.34 ± 0.34
CHLA90 AUTONOMIC GANGLIA | 1.04 ± 0.067 | 1.06 ± 0.02 | 1.04 ± 0.075 | 1.01 ± 0.055 | 0.934 ± 0.013 | 0.95 ± 0.035 | 0.839 ± 0.053 | 0.687 ± 0.015 | 0.925 ± 0.057 | 0.943 ± 0.072 | 0.923 ± 0.058 | 0.917 ± 0.045 | 1.14 ± 0.11 | 1.11 ± 0.098 | 1.09 ± 0.097 | 1.13 ± 0.14
HCT15 LARGE INTESTINE | 1.09 ± 0.044 | 1.05 ± 0.028 | 1.06 ± 0.025 | 1.03 ± 0.052 | 1.14 ± 0.055 | 1.1 ± 0.038 | 1.12 ± 0.058 | 1.11 ± 0.035 | 1.1 ± 0.067 | 1.04 ± 0.056 | 1.04 ± 0.065 | 1.03 ± 0.096 | 1.06 ± 0.072 | 1.09 ± 0.045 | 1.06 ± 0.036 | 1.08 ± 0.04
